In PubChem BioAssay AID1549 (Sanford-Burnham Center for Chemical Genomics, 2009):
Activity calls are given as the source filed them. How the calls were made is not given here.

Target: Influenza A virus M2 proton channel (A/TW/4845/1999 H1N1)
Assay: NMR binding screen, influenza A virus M2 proton channel, Kd (AID 1549)
Conditions: M2 protein

Row | SMILES | Kd
1 | COc1cc(/C=C2/NC(=S)NC2=O)cc(Cl)c1O | > 4 mM (inactive)
2 | CP(C)(=O)c1cccc(C(=O)O)c1 | > 4 mM (inactive)
3 | O=c1cc(-c2ccc(O)cc2)[nH]c(=S)[nH]1 | > 4 mM (inactive)
4 | CC(=O)Nn1cc2c(=O)n(C)c(=O)n(C)c2c1 | > 4 mM (inactive)
5 | Cc1ccccc1-n1c(-c2ccncc2)n[nH]c1=S | > 4 mM (inactive)
6 | Cc1nn2c(-c3ccco3)nnc2c2ccccc12 | > 4 mM (inactive)
7 | O=C(Nc1ccc(F)cc1F)c1ccco1 | > 4 mM (inactive)
8 | Cn1nnc2cc(C(=O)Nc3cccnc3)ccc21 | > 4 mM (inactive)
9 | Cc1cc(C(=O)NCc2cccs2)cs1 | > 4 mM (inactive)
10 | C[C@]12CCC3C(CC[C@H]4C[C@@H](O)CC[C@]34C)C1CCC2=O (some centres not stated) | > 4 mM (inactive)
11 | O=C1CCC(=O)N1c1cccc([N+](=O)[O-])c1 | > 4 mM (inactive)
12 | COc1c(C)c2c(c(O)c1C/C=C(\C)CCC(=O)O)C(=O)OC2 | > 4 mM (inactive)
13 | O=C(O)C1CN2CCC1CC2 (configuration not stated) | > 4 mM (inactive)
14 | Nc1ccncc1 | > 4 mM (inactive)
15 | CSc1ccc(C(=S)N2CCN(C)CC2)cc1 | > 4 mM (inactive)
16 | O=c1/c(=C\c2cccnc2)sc2nc3ccccc3n12 | > 4 mM (inactive)
17 | Cc1csc2nc(N)nn12 | > 4 mM (inactive)
18 | CC(C)=CC1C(C(=O)O)C1(C)C (configuration not stated) | > 4 mM (inactive)
19 | O=c1/c(=C/c2ccccc2F)sc2ncnn12 | > 4 mM (inactive)
20 | Cc1nc(-c2cnccn2)sc1C(=O)O | > 4 mM (inactive)
21 | C[C@@H]1OC(O[C@H]2[C@H](OC(=O)[C@]34CCC(C)(C)CC3C3=CCC5[C@@]6(C)CC[C@H](OC7O[C@@H](C)[C@H](O[C@@H]8OC[C@@H](O)[C@H](O)[C@H]8O)[C@@H](O)[C@H]7O)C(C)(C)C6CC[C@@]5(C)[C@]3(C)CC4O)OC[C@H](O)[C@H]2O)[C@H](O)[C@H](O)[C@H]1O[C@@H]1O[C@H](CO)[C@@H](O)[C@H](O)[C@H]1O (some centres not stated) | > 4 mM (inactive)
22 | O=C1NCCCC1C(=O)N1CCCCC1 (configuration not stated) | > 4 mM (inactive)
23 | Cc1ccc(S(=O)(=O)CC(=O)N(C)C)cc1 | > 4 mM (inactive)
24 | C[C@@H]1[C@H]2[C@H](O[C@@H]3O[C@H](CO)[C@@H](O)[C@H](O)[C@H]3O)OC=C(C(=O)O)[C@H]2C[C@@H]1O | > 4 mM (inactive)
25 | CS(=O)(=O)N1CCN(c2ncccn2)CC1 | > 4 mM (inactive)
26 | COc1c(CC=C(C)C)c2c(c3oc(=O)c(-c4ccc(O)cc4)c(O)c13)C=CC(C)(C)O2 | > 4 mM (inactive)

Row | SMILES | Kd
27 | O=c1c(O)c(-c2ccc(O)cc2O)oc2cc(O)cc(O)c12 | > 4 mM (inactive)
28 | Cc1nn2c(-c3ccncc3)nnc2c2ccccc12 | > 4 mM (inactive)
29 | OCC(O)Cc1ccc2c(c1)OCO2 (configuration not stated) | > 4 mM (inactive)
30 | CCC(/C=C/[C@@H](C)[C@H]1CCC2C3CC=C4C[C@@H](O)CC[C@]4(C)C3CC[C@@]21C)C(C)C (some centres not stated) | > 4 mM (inactive)
31 | O=C(O)CCCCCCCCCCCCC1C=CCC1 (configuration not stated) | > 4 mM (inactive)
32 | C=CC1=C(C)/C(=C/c2[nH]c(Cc3[nH]c(/C=C4\NC(=O)C(C)=C4C=C)c(C)c3CCC(=O)O)c(CCC(=O)O)c2C)NC1=O | > 4 mM (inactive)
33 | NC(C(=O)O)C(O)C(=O)O (configuration not stated) | > 4 mM (inactive)
34 | CC(=O)OC/C=C(\C)CC/C=C(\C)CC/C=C(\C)CC/C=C(\C)CC/C=C(\C)CC/C=C(\C)CC/C=C(\C)CC/C=C(\C)CCC=C(C)C | > 4 mM (inactive)
35 | CC(O)(C(=O)O)c1ccccc1 (configuration not stated) | > 4 mM (inactive)
36 | CSc1ccc(C2NC(=O)CCC2[N+](=O)[O-])cc1 (configuration not stated) | > 4 mM (inactive)
37 | COc1cc(-c2nnc(NC(C)=O)o2)cc(OC)c1OC | > 4 mM (inactive)
38 | O=P(O)(Cc1ccccc1)c1ccccc1 | > 4 mM (inactive)
39 | CNC(=O)n1ccc(C(=O)N2CCCCC2)n1 | > 4 mM (inactive)
40 | CS(=O)(=O)N/N=C/c1cccs1 | > 4 mM (inactive)
41 | S=c1ccc(N2CCCCC2)n[nH]1 | > 4 mM (inactive)
42 | O=C(/C=C/c1ccc(O)c(O)c1)O[C@@H]1C[C@](O)(C(=O)O)C[C@@H](O)[C@H]1O | > 4 mM (inactive)
43 | COc1ccc(NC(=O)CCCC(=O)O)c(OC)c1 | > 4 mM (inactive)
44 | CC(C)c1c(O)c(-c2cc3c(c(C(C)C)c2O)CCC2C(C)(C)CCC[C@]32C)cc2c1CCC1C(C)(C)CCC[C@]21C (some centres not stated) | > 4 mM (inactive)
45 | COc1cnn(-c2ccccc2)c(=O)c1N(C)C | > 4 mM (inactive)
46 | O=C(O)C1CCN(c2ccc(C(F)(F)F)cn2)CC1 | > 4 mM (inactive)
47 | COc1cc2c(cc1OC)-c1cc3ccc(OC)c(OC)c3c[n+]1CC2 | > 4 mM (inactive)
48 | O=c1ccc2ccc(O)cc2o1 | > 4 mM (inactive)
49 | C=CCc1ccc(O)c(OC)c1 | > 4 mM (inactive)
50 | COc1ccc(Cl)cc1NC(=O)C(N)=O | > 4 mM (inactive)
51 | Cn1nc(C(C)(C)C)cc1N | > 4 mM (inactive)
52 | Cc1ccc(C(O)c2nccn2C)o1 (configuration not stated) | > 4 mM (inactive)

Row | SMILES | Kd
53 | Cc1cc(=O)[nH]c(N2CCCCC2)n1 | > 4 mM (inactive)
54 | CCOC(=O)CC1NCCNC1=O (configuration not stated) | > 4 mM (inactive)
55 | CC(=O)OCC(=O)[C@@]1(O)CCC2C3CC[C@@H]4C[C@H](OC(C)=O)CC[C@]4(C)C3C(=O)C[C@@]21C (some centres not stated) | > 4 mM (inactive)
56 | C=CCn1c(=S)[nH]c2ccc(Br)cc2c1=O | > 4 mM (inactive)
57 | Cc1ccc2c(c1)CCCN2C(=O)c1ccncc1 | > 4 mM (inactive)
58 | Cc1ncc(C[n+]2csc3ccccc32)c(N)n1 | > 4 mM (inactive)
59 | CC1(C)CC2C1CCC1(C)OC2(C)CCC1O (configuration not stated) | > 4 mM (inactive)
60 | Cc1nnc(NC(=O)C(C)Sc2nncn2C)s1 (configuration not stated) | > 4 mM (inactive)
61 | COC(=O)c1c(OC)cc2c(c1C)Oc1c(Cl)c(OC(C)=O)c(Cl)c(C)c1C(=O)O2 | > 4 mM (inactive)
62 | CC(=O)NCC1OCCc2ccccc21 (configuration not stated) | > 4 mM (inactive)
63 | CCCn1cnc2sc(C(N)=O)c(C)c2c1=O | > 4 mM (inactive)
64 | CC(=O)Nc1ccc2c(c1)C(=O)N(C1CCCCC1)C2=O | > 4 mM (inactive)
65 | O=C(Nc1cnccn1)c1cccc(C(F)(F)F)c1 | > 4 mM (inactive)
66 | CCOC(=O)c1ccc(Oc2ccc(C)nn2)cc1 | > 4 mM (inactive)
67 | Cc1occc1C(=O)Nc1cc(C(C)(C)C)on1 | > 4 mM (inactive)
68 | COc1ccc2c(c1)OCc1c-2oc2cc(OC)ccc12 | > 4 mM (inactive)
69 | O=C1NC(=O)/C(=C\c2ccncc2)S1 | > 4 mM (inactive)
70 | CCC(C)C(=O)OC1[C@@H]2CC3=C4CC(=O)O[C@@H](c5ccoc5)[C@]4(C)CCC3C(C)(C2=O)[C@@H](CC(=O)OC)C1(C)C (some centres not stated) | > 4 mM (inactive)
71 | CNC(=O)C1COc2ccccc2O1 (configuration not stated) | > 4 mM (inactive)
72 | Cc1c(CO)cnn1-c1ccc(F)cc1 | > 4 mM (inactive)
73 | C/C=C(/C)C(=O)O[C@H]1CC[C@@]2(C)[C@@H]3CC[C@H]4[C@]5(O)C[C@H](O)[C@@]6(O)[C@@H](CN7C[C@@H](C)CC[C@H]7[C@@]6(C)O)[C@]5(O)C[C@@]42OC13O | > 4 mM (inactive)
74 | NC(=O)CSc1nnnn1-c1ccccc1 | > 4 mM (inactive)
75 | Cc1ccc(OCC(=O)n2cnnc2N)c(C)c1 | > 4 mM (inactive)
76 | O=C(O)C1Cc2ccccc2O1 (configuration not stated) | > 4 mM (inactive)
77 | CNC(=S)Nc1ccc(C(=O)O)cc1 | > 4 mM (inactive)
